Usually IC50 stands for the concentration that inhibits the measured activity by half. What is called Kd is a measure of binding affinity in units of concentration.

The values that follow come from publication PMC9570838, “JND4135, a New Type II TRK Inhibitor, Overcomes TRK xDFG and Other Mutation Resistance In Vitro and In Vivo” (Molecules, 2022).

Test [1] concerns BaF3 MPRIP-TRKA. Put plainly: BaF3 cell proliferation, CCK-8 assay. The note with it: Mus musculus, BaF3, 72 h, read-out: IC50 (nM ± SD) WT MPRIP-TRKA. A general note: Tetrazolium assays rely on reduction of a dye to a coloured formazan, in cell work by metabolically active cells.
Description: (§2) Murine BaF3 cells were purchased from JRCB cell bank. The BaF3 cell lines, which stably express natively-fused TRKA/B/C or various point mutants, were self-established by following previously described procedures. Briefly, NTRK genes were totally synthesized and cloned into pCDNA3.1(+) vectors (Invitrogen, Carlsbad, CA, USA). […] Stable strains were established by selection of cells 2 weeks post-transfection with 800 μg/mL G418 (Merck, Whitehouse Station, NJ) and further selection after the withdrawal of interleukin-3 (IL-3, R&D) for 2 weeks. All of BaF3 stable cell lines were verified by DNA sequencing, protein expression and anti-proliferation activity against positive drugs. […] All cells were grown at 37 °C in a humidified 5% CO2 atmosphere.
(§3) Cells were placed in 96-well plates (5000~8000/well) in complete medium. […] IC50 values were calculated by concentration-response curve fitting using GraphPad Prism 5.0 software. Each IC50 value is expressed as mean ± SD.
In test [2] the test system is BaF3 ETV6-TRKB-G709C. Put plainly: BaF3 cell proliferation, CCK-8 assay. As to conditions: Mus musculus, BaF3, 72 h, read-out: IC50 (nM ± SD) xDFG ETV6-TRKB-G709C.
Description: as §2, §3
The test system of test [3] is BaF3 QKI-TRKB. Nature of the test: BaF3 cell proliferation, CCK-8 assay. The note with it: Mus musculus, BaF3, 72 h, read-out: IC50 (nM ± SD) WT QKI-TRKB.
Description: as §2, §3
Test [4] relates to BaF3 ETV6-TRKB-F633L. Nature of the test: BaF3 cell proliferation, CCK-8 assay. The note with it: Mus musculus, BaF3, 72 h, read-out: IC50 (nM ± SD) Gatekeeper ETV6-TRKB-F633L.
Description: as §2, §3
In test [5] the test system is BaF3 EML4-TRKC. Put plainly: BaF3 cell proliferation, CCK-8 assay. The note with it: Mus musculus, BaF3, 72 h, read-out: IC50 (nM ± SD) WT EML4-TRKC.
Description: as §2, §3
In test [6] the test system is BaF3 ETV6-TRKC. Nature of the test: BaF3 cell proliferation, CCK-8 assay. The note with it: Mus musculus, BaF3, 72 h, read-out: IC50 (nM ± SD) WT ETV6-TRKC.
Description: as §2, §3
For test [7], the system named is BaF3 ETV6-TRKC-G696C. Put plainly: BaF3 cell proliferation, CCK-8 assay. As to conditions: Mus musculus, BaF3, 72 h, read-out: IC50 (nM ± SD) xDFG ETV6-TRKC-G696C.
Description: as §2, §3
Test [8] relates to BaF3-CD74-TRKA-G667C cells (p-TRKA, ERK, PLCγ). Nature of the test: Western blot of TRK signaling. It is filed as cell-based, Murine. The note with it: 6 h treatment. The method, then:
(§1) Cells were treated with various concentrations of each tested compound for a designated time. Then cells were lysed using 1 × SDS sample lysis buffer (CST recommended) with protease and phosphatase inhibitors. […] The films were blocked with 5% fat-free milk in TBS solution containing 0.5% Tween-20 for 4 h at room temperature, then incubated with the corresponding primary antibody (1:1000–1:200) overnight at 4 °C. After washing with TBST, HRP-conjugated secondary antibody was incubated for 2 h. The protein signals were visualized by ECL Western Blotting Detection Kit (Thermo Scientific, Waltham, MA, USA), and detected with Amersham Imager 600 system (GE, Boston, MA, USA).
In general terms: Immunoblotting shows a protein as a band on a membrane.

Test [9] has as its system BaF3-CD74-TRKA-WT cells (p-TRKA, ERK, PLCγ). Put plainly: Western blot of TRK signaling. Type of test: cell-based, Murine. The note with it: 6 h treatment. The method, then: as §1
Test [10] deals with BaF3-CD74-TRKA-G595R cells (p-TRKA, ERK, PLCγ). Nature of the test: Western blot of TRK signaling. It is filed as cell-based, Murine. As to conditions: 6 h treatment. The method, then: as §1
Test [11] has as its target T1, TRKC-G696C (Homo sapiens, UniProt Q16288, G696C).
T1 construct: residues 526–839 from the kinase domain; made in house
Nature of the test: Bio-layer interferometry (BLI) Octet binding assay. The method, then:
Biolayer interferometry (BLI) assays were performed with the Octet K2 machine (ForteBio, Inc., Fremont, CA, USA). […] A duplicate set of sensors was incubated in an assay buffer (PBS containing 0.02% Tween20 and 0.1% BSA) with 5% DMSO but without protein for use as a background binding control. Both sets of sensors were blocked with a solution of 10 μg/mL biocytin for 1 min at rt. […] Data was analyzed by the FortéBio Data Analysis 8.1 software (FortéBio, Fremont, CA, USA) using a double reference subtraction (sample and sensor references).
Background: BLI is a label-free optical method that tracks binding on a fibre tip over time.

Test [12] concerns TRKs-xDGF mutants TRKA-G667C, TRKB-G709C and TRKC-G696C in stable BaF3 models. Nature of the test: Western blot of xDFG mutant TRK signal pathway (Figure S2). It is filed as cell-based, Murine. The note with it: 6 h. The method, then:
as §1

Test [13] has as its system BaF3 CD74-TRKA. Put plainly: BaF3 cell proliferation, CCK-8 assay. The note with it: Mus musculus, BaF3, 72 h, read-out: IC50 (nM ± SD) WT CD74-TRKA.
Description: as §2, §3
In test [14] the test system is parental BaF3 cells (phospho-ERK). Put plainly: Western blot in parental BaF3 cells (Figure S1). As to conditions: parental BaF3 cells driven by IL-3 (Figure S1). Type of test: cell-based, Murine. The method, then: as §1

In the case of `Cc1c(C#Cc2cnc3cnc(-c4ccc(N)cc4)cn23)cccc1C(=O)Nc1cc(CN2CCN(C)CC2)cc(C(C)C)c1` [JND4135, 3-((6-(4-aminophenyl)imidazo[1,2-a]pyrazin-3-yl)ethynyl)-N-(3-isopropyl-5-((4-methylpiperazin-1-yl)methyl)phenyl)-2-methylbenzamide], the IC50 came out at 7.1 ± 2.3 nM in test [1]; 18.7 ± 2.9 nM in [2]; 2.4 ± 0.6 nM in test [3]; 178 ± 4.3 nM in test [4]; 13.2 ± 2.6 nM in test [5]; 10.4 ± 4 nM in test [6]. Further, the values for the IC50 in [7] and in test [13] were 1.3 ± 0.7 nM and 10.4 ± 3.2 nM, respectively. Also, the figures for the “concentration from which phosphorylation of TRKA and downstream ERK, PLCγ decreased” value in [8], in test [9] and in [10] were 1.6 nM, 8 nM and 40 nM, respectively. In test [11] (Koff, read-out: dissociation rate with TRKC-G696C), the koff is 0.00135 s⁻¹. Moreover, the Kd in test [11] (read-out: Kd, binding affinity to TRKC-G696C) worked out at 3.68 nM. The “dose that effectively inhibits the activation of TRKs-xDGF mutants” value in [12] was 8.0 nM. The “effect on phospho-ERK levels” value in [14] is on record as “increased the phospho-ERK levels”.
